This note sets out measurements from publication PMC11751439, “Targeting SRSF1 improves cancer immunotherapy by dually acting on CD8^+T and tumor cells” (Signal Transduction and Targeted Therapy, 2025).

The Kd is a measure of binding affinity in units of concentration.

Test [1] addresses T1, SRSF1 (recombinant SRSF1; serine arginine-rich splicing factor 1) (Homo sapiens, UniProt Q07955).
T1 construct: recombinant purified SRSF1; RRM1 domain targeted in screening
Nature of the test: SPR. The test is classed as binding. The conditions noted are these: purified SRSF1 variant; unit inferred, M taken from the wild-type value.

In test [2] the target is T1, SRSF1 (recombinant SRSF1; serine arginine-rich splicing factor 1). In words: SPR (Biacore T100). The test is classed as binding.

T1 sequence (Q07955 2-248): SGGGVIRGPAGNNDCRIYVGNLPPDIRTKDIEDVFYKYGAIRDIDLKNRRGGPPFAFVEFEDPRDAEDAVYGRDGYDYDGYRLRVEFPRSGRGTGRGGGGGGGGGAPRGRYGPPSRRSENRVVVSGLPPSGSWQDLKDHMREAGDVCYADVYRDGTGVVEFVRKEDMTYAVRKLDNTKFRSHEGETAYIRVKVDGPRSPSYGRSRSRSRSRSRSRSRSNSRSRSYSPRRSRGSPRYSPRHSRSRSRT

Consider `O=C(/C=C/c1ccc(O)c(O)c1)c1ccc(O)c(O)c1O` [TN2008], for which the Kd in test [1] came to 37.2 µM; in test [2], 5.13 µM.
